Experimental data: patent US9839642B2, “Beta-tetrazolyl-propionic acids as metallo-beta-lactamase inhibitors” (priority 2014, dated 2017)
pIC50: −log10 of the molar value.

What was measured:
IMP-1 = IMP-1 (Serratia marcescens, UniProt P52699); assay: Enzyme activity: determination of IC50, fluorescence assay with CCF2-FA substrate; type: biochemical; details: IMP-1 enzyme 2 pM, CCF2-FA 1.25 μM, 2 hours at 25° C.; read-out: IMP1 IC50
In short: (§1)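 Enzyme at 1 pM (NDM-1), 2 pM (IMP-1) or 30 pM (VIM-1) was incubated with inhibitor (20 μM to 0.00063 μM) and 1.25 μM CCF2-FA in 100 mM KH2PO4 pH 7, 0.005% Tween-20, 10 μM ZnSO4 for 2 hours at 25° C. Fluorescence was read at ex 405/em 460 nm; IC50 from 4-parameter fit.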

NDM-1 = NDM-1 (Klebsiella pneumoniae, UniProt C7C422); assay: as above; type: biochemical; details: NDM-1 enzyme 1 pM, CCF2-FA 1.25 μM, 2 hours at 25° C.; read-out: NDM1 IC50
Chain of NDM-1 (C7C422 29-270, looked up, species assumed): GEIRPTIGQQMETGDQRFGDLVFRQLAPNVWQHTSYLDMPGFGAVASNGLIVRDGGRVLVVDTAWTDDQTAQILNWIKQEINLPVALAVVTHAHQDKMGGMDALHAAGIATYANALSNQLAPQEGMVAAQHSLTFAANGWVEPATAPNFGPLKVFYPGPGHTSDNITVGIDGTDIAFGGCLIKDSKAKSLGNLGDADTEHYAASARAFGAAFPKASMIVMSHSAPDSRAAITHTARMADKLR
In short: as §1

VIM-1 = VIM-1 (Pseudomonas aeruginosa, UniProt A0A0F7KYQ8); assay: as above; type: biochemical; details: VIM-1 enzyme 30 pM, CCF2-FA 1.25 μM, 2 hours at 25° C.; read-out: VIM1 IC50
In short: as §1

[1] = tested on: Escherichia coli expressing NDM-1 (CLB30016); assay: Antibiotic potentiation activity: synergistic concentration (MITC95) with imipenem, growth by OD600; type: cell-based; details: E. coli CLB30016 (NDM-1), 95% inhibition of growth
In short: (§2)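 Colonies from overnight agar plates (35 °C) were suspended in saline and diluted 1:100 into 1.1× CAMHB. Inhibitor (final 200 μM to 0.195 μM) was combined with imipenem at 1 or 4 μg/ml, incubated 22–24 h at 35 °C, and absorbance read; MITC95 is the lowest inhibitor concentration giving 95% growth inhibition.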

[2] = tested on: Klebsiella pneumoniae expressing VIM-1 (IHMA599644); assay: as above; type: cell-based; details: K. pneumoniae IHMA599644 (VIM-1), 95% inhibition of growth
In short: as §2

[3] = tested on: Serratia marcescens expressing IMP-1 (CL5741); assay: as above; type: cell-based; details: S. marcescens CL5741 (IMP-1), 95% inhibition of growth
In short: as §2

Chain of IMP-1 (P52699 19-246, looked up, species assumed): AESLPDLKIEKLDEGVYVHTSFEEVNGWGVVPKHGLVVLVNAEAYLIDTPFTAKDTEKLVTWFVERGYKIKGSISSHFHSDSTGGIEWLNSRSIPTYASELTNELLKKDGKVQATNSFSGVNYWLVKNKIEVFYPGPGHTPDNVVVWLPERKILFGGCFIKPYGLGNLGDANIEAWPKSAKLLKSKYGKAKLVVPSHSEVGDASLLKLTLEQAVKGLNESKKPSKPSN

| SMILES | pIC50 (IMP-1) | pIC50 (NDM-1) | pIC50 (VIM-1) | NDM1 EC30016 MITC95 [1] [µM] | VIM1 KP599644 MITC95 [2] [µM] | IMP1 SM5741 MITC95 [3] [µM] |
| --- | --- | --- | --- | --- | --- | --- |
| CCC[C@H](C(=O)O)[C@H](Cc1cccc(-c2ccc(C(=O)NC)cc2)c1)c1nn[nH]n1 [Example 344, (2S)-2-[(1S)-2-[4′-(methylcarbamoyl)biphenyl-3-yl]-1-(2H-tetrazol-5-yl)ethyl]pentanoic acid] | 7.55 | 7.85 | 8.77 | 38 | 50 | 0.59 |
| CCC[C@H](C(=O)O)[C@H](Cc1cccc(-c2cccc(C3CCCNC3)c2)c1)c1nn[nH]n1 (stereo partly drawn) [Example 345, (2S)-2-[(1S)-2-(3′-piperidin-3-ylbiphenyl-3-yl)-1-(2H-tetrazol-5-yl)ethyl]pentanoic acid] | 6.57 | 7.41 | 8.77 | 25 | 18.8 | 6.2 |
| CCC[C@H](C(=O)O)[C@H](Cc1cccc(-c2ccc(N3CCOCC3)nc2)c1)c1nn[nH]n1 [Example 346, (2S)-2-[(1S)-2-[3-(6-morpholin-4-ylpyridin-3-yl)phenyl]-1-(2H-tetrazol-5-yl)ethyl]pentanoic acid] | 6.49 | 7.68 | 8.66 | 75 | 38 | 6.2 |
| CCC[C@H](C(=O)O)[C@H](Cc1cccc(-c2cncc(CN3CCCCC3)c2)c1)c1nn[nH]n1 [Example 347, (2S)-2-[(1S)-2-{3-[5-(piperidin-1-ylmethyl)pyridin-3-yl]phenyl}-1-(2H-tetrazol-5-yl)ethyl]pentanoic acid] | 5.80 | 6.80 | 8.19 | 50 | 25 | 25 |
| CCC[C@H](C(=O)O)[C@H](Cc1cccc(-c2cccc(OC3CCNCC3)n2)c1)c1nn[nH]n1 [Example 348, (2S)-2-[(1S)-2-{3-[6-(piperidin-4-yloxy)pyridin-2-yl]phenyl}-1-(2H-tetrazol-5-yl)ethyl]pentanoic acid] | 6.27 | 7.66 | 8.66 | 18.8 | 18.8 | 6.2 |
| CCC[C@H](C(=O)O)[C@H](Cc1cccc(-c2ccnc(N)c2)c1)c1nn[nH]n1 [Example 349, (2S)-2-[(1S)-2-[3-(2-aminopyridin-4-yl)phenyl]-1-(2H-tetrazol-5-yl)ethyl]pentanoic acid] | 6.85 | 7.96 | 8.89 | 9.4 | 12.5 | 3.9 |
| CCC[C@H](C(=O)O)[C@H](Cc1cccc(-c2ccc(C3CCNCC3)cc2)c1)c1nn[nH]n1 [Example 350, (2S)-2-[(1S)-2-(4′-piperidin-4-ylbiphenyl-3-yl)-1-(2H-tetrazol-5-yl)ethyl]pentanoic acid] | 6.42 | 7.59 | 8.52 | 25 | 25 | 6.2 |
| CCC[C@H](C(=O)O)[C@H](Cc1cccc(-c2ccc(C(N)=O)cc2)c1)c1nn[nH]n1 [Example 351, (2S)-2-[(1)-2-(4′-carbamoylbiphenyl-3-yl)-1-(2H-tetrazol-5-yl)ethyl]pentanoic acid] | 7.62 | 9.11 | 8.80 | 7.8 | 25 | 0.59 |
| CCC[C@H](C(=O)O)[C@H](Cc1cccc(-c2cncc3ccccc23)c1)c1nn[nH]n1 [Example 352, (2S)-2-[(1S)-2-(3-isoquinolin-4-ylphenyl)-1-(2H-tetrazol-5-yl)ethyl]pentanoic acid] | 8.11 | 8.77 | 8.77 | 18.8 | 50 | 0.39 |
| CCC[C@H](C(=O)O)[C@H](Cc1cccc(-c2ccncc2)c1)c1nn[nH]n1 [Example 353, (2S)-2-[(1S)-2-(3-pyridin-4-ylphenyl)-1-(2H-tetrazol-5-yl)ethyl]pentanoic acid] | 6.80 | 7.89 | 8.64 | 38 | 100 | 6.2 |
| CCC[C@H](C(=O)O)[C@H](Cc1cccc(-c2ccc3c(c2)CCC(N)C3)c1)c1nn[nH]n1 (stereo partly drawn) [Example 354, (2S)-2-[(1S)-2-[3-(6-amino-5,6,7,8-tetrahydronaphthalen-2-yl)phenyl]-1-(2H-tetrazol-5-yl)ethyl]pentanoic acid] | 6.51 | 7.89 | 8.85 | 9.4 | 9.4 | 4.7 |
| CCC[C@H](C(=O)O)[C@H](Cc1cccc(-c2ccc(N3CCNCC3)nc2)c1)c1nn[nH]n1 [Example 355, (2S)-2-[(1S)-2-[3-(6-piperazin-1-ylpyridin-3-yl)phenyl]-1-(2H-tetrazol-5-yl)ethyl]pentanoic acid] | 6.26 | 7.68 | 8.55 | 12.5 | 18.8 | 9.4 |
| CCC[C@H](C(=O)O)[C@H](Cc1cccc(-c2cnc(N)c(F)c2)c1)c1nn[nH]n1 [Example 356, (2S)-2-[(1S)-2-[3-(6-amino-5-fluoropyridin-3-yl)phenyl]-1-(2H-tetrazol-5-yl)ethyl]pentanoic acid] | 6.77 | 8.21 | 8.82 | 25 | 18.8 | 4.7 |
| CCC[C@H](C(=O)O)[C@H](Cc1cccc(-c2ccccc2CN2CCCCC2)c1)c1nn[nH]n1 [Example 357, (2S)-2-[(1S)-2-[2′-(piperidin-1-ylmethyl)biphenyl-3-yl]-1-(2H-tetrazol-5-yl)ethyl]pentanoic acid] | 5.68 | 6.77 | 7.20 | 150 | 150 | 38 |
| CCC[C@H](C(=O)O)[C@H](Cc1cccc(-c2cccc(CN3CCCCC3)c2)c1)c1nn[nH]n1 [Example 358, (2S)-2-[(1S)-2-[3′-(piperidin-1-ylmethyl)biphenyl-3-yl]-1-(2H-tetrazol-5-yl)ethyl]pentanoic acid] | 6.00 | 7.33 | 8.21 | 38 | 62 | 12.5 |
| CCC[C@H](C(=O)O)[C@H](Cc1cccc(-c2cccc(CN)c2)c1)c1nn[nH]n1 [Example 359, (2S)-2-[(1S)-2-[3′-(aminomethyl)biphen-yl-3-yl]-1-(2H-tetrazol-5-yl)ethyl]pentanoic acid] | 6.12 | 7.22 | 8.60 | 9.4 | 6.2 | 12.5 |
| CCC[C@H](C(=O)O)[C@H](Cc1cccc(N2CCCC(O)C2)c1)c1nn[nH]n1 (stereo partly drawn) [Example 360, (2S)-2-[(1S)-2-[3-(3-hydroxypiperidin-1-yl)phenyl]-1-(2H-tetrazol-5-yl)ethyl]pentanoic acid] | 6.29 | 7.33 | 7.89 | 25 | 150 | 18.8 |
| CCC[C@H](C(=O)O)[C@H](Cc1cccc(N(C)CCN(C)C)c1)c1nn[nH]n1 [Example 361, (2S)-2-[(1S)-2-(3-{[2-(dimethylamino)ethyl] (methyl)amino}phenyl)-1-(2H-tetrazol-5-yl)ethyl]pentanoic acid] | 5.06 | 6.41 | 7.54 | 38 | 25 | 150 |
| CCC[C@H](C(=O)O)[C@H](Cc1cccc(N2CCN(C)CC2)c1)c1nn[nH]n1 [Example 362, (2S)-2-[(1S)-2-[3-(4-methylpiperazin-1-yl)phenyl]-1-(2H-tetrazol-5-yl)ethyl]pentanoic acid] | 4.96 | 6.19 | 8.00 | 25 | 18.8 | 150 |
| CCC[C@H](C(=O)O)[C@H](Cc1cccc(N2CCN(C(C)=O)CC2)c1)c1nn[nH]n1 [Example 363, (2S)-2-[(1S)-2-[3-(4-acetylpiperazin-1-yl)phenyl]-1-(2H-tetrazol-5-yl)ethyl]pentanoic acid] | 6.09 | 6.82 | 7.70 | 100 | 100 | 25 |
